# Structures can show the parent of a compound that is named as a salt.
# Biological target: AMPA receptor
# Assay: Binding experiment against AMPA receptor ([3H]-AMPA binding, crude synaptic membranes from cerebral cortex)
# Details: rat cerebral cortex crude synaptic membranes; [3H]-AMPA 5 nmol/L, potassium thiocyanate 100 mmol/L, 30 minutes at 0° C.; IC50 converted to Ki
# Protocol: Binding Experiment Against AMPA Receptor
# To a crude synaptic membranes preparation prepared from cerebral cortex in rat were added [^3H]-AMPA (final concentration: 5 nmol/L) that binds selectively to AMPA receptors, potassium thiocyanate (final concentration: 100 mmol/L) and testing compound, and the mixture was incubated for 30 minutes at 0° C. After the reaction was stopped by suction filtration, the radioactivity on filter was measured with liquid scintillation counter. The specific binding level of [^3H]-AMPA was determined by subtracting the non-specific binding level in the presence of glutamic acid (0.1 mmol/L) from total binding level. The [^3H]-AMPA binding in the absence of testing compound was put on 100, and the concentration of compound to decrease by 50% (IC50 value) was determined, which was converted to Ki value to calculate the binding capacity of each compound to AMPA receptor (Eur. J. Pharmacol., 1993, 246, 195-204).
row,SMILES,Ki [nM]
1,O=C(Nc1ccccc1F)OCc1cn(-c2cc3cc(C(=O)O)c(=O)[nH]c3cc2[N+](=O)[O-])cn1 [Example 6],8.22
2,"O=C(Nc1ccccc1)OCc1cn(-c2cc3cc(C(=O)O)c(=O)[nH]c3cc2[N+](=O)[O-])cn1 [Example 2, 1,2-Dihydro-7-nitro-2-oxo-6-(4-((phenylcarbamoyloxy)methyl)imidazole-1-yl)quinoline-3-carboxylic acid]",22.4
3,"O=C(Nc1cccc(C(=O)O)c1)OCc1cn(-c2cc3cc(C(=O)O)c(=O)[nH]c3cc2[N+](=O)[O-])cn1 [Example 15, 6-(4-(((3-Carboxyphenyl)carbamoyloxy)methyl)imidazole-1-yl)-1,2-dihydro-7-nitro-2-oxoquinoline-3-carboxylic acid]",17.8
4,"O=C(Nc1ccc(C(=O)O)cc1)OCc1cn(-c2cc3cc(C(=O)O)c(=O)[nH]c3cc2[N+](=O)[O-])cn1 [Example 16, 6-(4-(((4-Carboxyphenyl)carbamoyloxy)methyl)imidazole-1-yl)-1,2-dihydro-7-nitro-2-oxoquinoline-3-carboxylic acid]",16.5
5,"CCOC(=O)c1ccc(NC(=O)OCc2cn(-c3cc4cc(C(=O)OCC)c(=O)[nH]c4cc3C(F)(F)F)cn2)cc1 [Example 18, Ethyl 1,2-dihydro-6-(4-(((4-ethoxycarbonylphenyl)carbamoyloxy)methyl)imidazole-1-yl)-2-oxo-7-trifluoromethylquinoline-3-carboxylate]",18.4

# System: not given
# Assay: not given
# Details: not given
row,SMILES,melting point
1,"O=C(Nc1ccccc1Br)OCc1cn(-c2cc3cc(C(=O)O)c(=O)[nH]c3cc2C(F)(F)F)cn1 [Example 25, 6-(4-(((2-Bromophenyl)carbamoyloxy)methyl)imidazole-1-yl)-1,2-dihydro-2-oxo-7-trifluoromethylquinoline-3-carboxylic acid]",145 to 147 °C
2,O=C(NCc1ccccc1)OCc1cn(-c2cc3cc(C(=O)O)c(=O)[nH]c3cc2C(F)(F)F)cn1 [Example 32],169 to 171 °C
3,"O=C(Nc1ccc(C(=O)O)cc1)OCc1cn(-c2cc3cc(C(=O)O)c(=O)[nH]c3cc2C(F)(F)F)cn1 [Example 19, 6-(4-(((4-Carboxyphenyl)carbamoyloxy)methyl)imidazole-1-yl)-1,2-dihydro-2-oxo-7-trifluoromethylquinoline-3-carboxylic acid]",218 to 220 °C
4,O=C(Nc1ccccc1F)OCc1cn(-c2cc3cc(C(=O)O)c(=O)[nH]c3cc2[N+](=O)[O-])cn1 (as salt: HCl) [Example 6],226 to 228 °C
5,"O=C(Nc1cccc(C(=O)O)c1)OCc1cn(-c2cc3cc(C(=O)O)c(=O)[nH]c3cc2Cl)cn1 [Example 43, 6-((((3-Carboxyphenyl)carbamoyloxy)methyl)imidazole-1-yl)-7-chloro-1,2-dihydro-2-oxoquinoline-3-carboxylic acid]",263 to 265 °C (dec.)
6,"O=C(Nc1ccccc1)OCc1cn(-c2cc3cc(C(=O)O)c(=O)[nH]c3cc2Cl)cn1 [Example 41, 7-Chloro-1,2-dihydro-2-oxo-6-(4-((phenylcarbamoyloxy)methyl)imidazole-1-yl)quinoline-3-carboxylic acid]",180 to 182 °C
7,"O=C(Nc1ccc(C(=O)O)cc1)OCc1cn(-c2cc3cc(C(=O)O)c(=O)[nH]c3cc2Cl)cn1 [Example 44, 6-((((4-Carboxyphenyl)carbamoyloxy)methyl)imidazole-1-yl)-7-chloro-1,2-dihydro-2-oxoquinoline-3-carboxylic acid]",249 to 251 °C

# From patent publication US6562839B1, “6-substituted heteroquinolinecarboxylic acid derivatives and addition salts thereof and processes for the preparation of both” (Kyorin Pharmaceutical Co., Ltd., priority 1999, dated 2003)
